pKi: −log10 of the molar value.
What was measured:
Estrogen receptor [1] = target: T1, Estrogen receptor (Homo sapiens, UniProt P03372)
T1 sequence (P03372 whole entry): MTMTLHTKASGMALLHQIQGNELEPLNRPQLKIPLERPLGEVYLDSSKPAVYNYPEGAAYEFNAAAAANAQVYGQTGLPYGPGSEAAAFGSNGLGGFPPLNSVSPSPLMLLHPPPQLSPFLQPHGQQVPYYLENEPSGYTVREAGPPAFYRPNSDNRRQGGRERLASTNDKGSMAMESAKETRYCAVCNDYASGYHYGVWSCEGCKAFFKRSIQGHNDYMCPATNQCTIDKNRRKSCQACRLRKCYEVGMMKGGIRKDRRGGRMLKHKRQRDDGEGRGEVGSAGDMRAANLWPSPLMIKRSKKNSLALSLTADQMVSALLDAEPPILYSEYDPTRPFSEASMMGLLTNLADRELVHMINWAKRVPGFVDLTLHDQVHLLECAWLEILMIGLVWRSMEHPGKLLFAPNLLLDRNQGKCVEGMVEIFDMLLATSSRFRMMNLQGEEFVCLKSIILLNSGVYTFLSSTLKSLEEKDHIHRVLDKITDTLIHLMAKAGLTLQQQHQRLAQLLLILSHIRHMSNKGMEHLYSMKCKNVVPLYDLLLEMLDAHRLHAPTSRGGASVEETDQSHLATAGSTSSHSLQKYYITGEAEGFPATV
Description: Binding affinity for estrogen receptor alpha

Estrogen receptor beta = Estrogen receptor beta (Homo sapiens, UniProt Q92731)
Description: Binding affinity for estrogen receptor beta

Estrogen receptor [2] = target: Estrogen receptor (Homo sapiens, UniProt Q92731+P03372)
Description: Inhibition of estradiol-stimulated MCF-7 breast adenocarcinoma cell proliferation

Sequence of Estrogen receptor beta (Q92731 whole entry): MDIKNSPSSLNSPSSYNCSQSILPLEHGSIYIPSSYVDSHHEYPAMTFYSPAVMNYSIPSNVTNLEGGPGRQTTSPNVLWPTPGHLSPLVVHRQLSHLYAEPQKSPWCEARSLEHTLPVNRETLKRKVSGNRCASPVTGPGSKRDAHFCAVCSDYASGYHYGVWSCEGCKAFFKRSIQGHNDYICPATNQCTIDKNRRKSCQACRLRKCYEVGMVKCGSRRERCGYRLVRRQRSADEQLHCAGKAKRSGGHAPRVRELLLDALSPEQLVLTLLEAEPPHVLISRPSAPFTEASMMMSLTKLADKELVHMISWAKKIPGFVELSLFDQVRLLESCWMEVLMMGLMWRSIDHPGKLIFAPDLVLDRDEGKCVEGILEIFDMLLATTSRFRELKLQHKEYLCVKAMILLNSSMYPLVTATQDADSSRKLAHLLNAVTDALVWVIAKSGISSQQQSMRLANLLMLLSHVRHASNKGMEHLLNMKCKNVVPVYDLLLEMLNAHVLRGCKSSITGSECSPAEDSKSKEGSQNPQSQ

Compound | pKi (Estrogen receptor [1]) | pKi (Estrogen receptor beta) | IC50 (Estrogen receptor [2]) [nM]
Oc1ccc(C2CCc3cc(O)ccc3N2)cc1 (stereo not given) | 6.77 | 7.19 | 
O=C(c1ccc(OCCN2CCCCC2)cc1)N1c2ccc(O)cc2CCC1c1ccc(O)cc1 (stereo not given) |  | < 6.00 | 990
Oc1ccc(C2CCc3cc(O)ccc3N2Cc2ccc(OCCN3CCCC3)cc2)cc1 (stereo not given) | 8.96 |  | 68
Oc1cccc(C2CCc3cc(O)ccc3N2Cc2ccc(OCCN3CCCCC3)cc2)c1 (stereo not given) |  | 8.26 | 
O=C(c1ccc(OCCN2CCCCC2)cc1)N1c2ccc(O)cc2CCC1c1cccc(O)c1 (stereo not given) | 7.43 | < 6.00 | 590
Oc1ccc(-c2ccc3cc(O)ccc3n2)cc1 | 6.51 | 7.46 | 
Oc1ccc2c(c1)CCC(c1ccccc1)N2Cc1ccc(OCCN2CCCCC2)cc1 (stereo not given) | 8.77 | 8.40 | 490
